From patent US10730870B2, “Compounds and methods for the enhanced degradation of targeted proteins” (Arvinas, Inc., priority 2015, dated 2020)
pIC50: −log10 of the molar value.

Biological target: VHL (Homo sapiens (Human), UniProt P40337)
Experiment: VHL fluorescence polarization (FP) competition assay
Format: binding

Row | SMILES | pIC50 (1% in DMSO) | pIC50 (0.25% in DMSO) | pIC50 (10% in DMSO) | VHL FP Assay IC50 (1% in DMSO)
1 | COc1ccc(C)c(C(=O)N2C[C@H](O)C[C@H]2C(=O)NCc2ccc(-c3scnc3C)cc2)c1 [Example 95, (2S,4R)-4-hydroxy-1-(5-methoxy-2-methylbenzoyl)-N-(4-(4-methylthiazol-5-yl)benzyl)pyrrolidine-2-carboxamide] | 4.63 | – | – | –
2 | Cc1ncsc1-c1ccc(CNC(=O)[C@@H]2C[C@@H](O)CN2C(=O)[C@H](CS)NC(=O)CCC(C)C)cc1 [Example 59, (2S,4R)-4-hydroxy-1-((R)-3-mercapto-2-(4-methylpentanamido)propanoyl)-N-(4-(4-methylthiazol-5-yl)benzyl)pyrrolidine-2-carboxamide] | 5.85 | – | 5.43 | –
3 | COc1cccc2c1C(=O)N([C@H](C(=O)N1C[C@H](O)C[C@H]1C(=O)NCc1ccc(-c3scnc3C)cc1)C(C)C)C2 [Example 15, (2S,4R)-4-hydroxy-1-((S)-2-(7-methoxy-1-oxoisoindolin-2-yl)-3-methylbutanoyl)-N-(4-(4-methylthiazol-5-yl)benzyl)pyrrolidine-2-carboxamide] | 4.61 | 5.91 | 4.09 | –
4 | Cc1ncsc1-c1ccc(CNC(=O)[C@@H]2C[C@@H](O)CN2C(=O)[C@H]([C@H](C)O)N2Cc3ccccc3C2=O)cc1 [Example 45, (2S,4R)-4-hydroxy-1-((2S,3S)-3-hydroxy-2-(1-oxoisoindolin-2-yl)butanoyl)-N-(4-(4-methylthiazol-5-yl)benzyl)pyrrolidine-2-carboxamide] | ~4.49 | – | 3.33 | –
5 | CC(C)[C@@H](C(=O)N1C[C@H](O)C[C@H]1C(=O)NCc1ccc(-c2cncn2C)cc1)N1Cc2ccccc2C1=O [Example 96, (2S,4R)-4-hydroxy-N-(4-(1-methyl-1H-imidazol-5-yl)benzyl)-1-((S)-3-methyl-2-(1-oxoisoindolin-2-yl)butanoyl)pyrrolidine-2-carboxamide] | 4.45 | – | – | –
6 | COc1cccc(CCC(=O)N[C@H](C(=O)N2C[C@H](O)C[C@H]2C(=O)NCc2ccc(-c3scnc3C)cc2)C(C)(C)C)c1 [Example 77, (2S,4R)-4-hydroxy-1-((S)-2-(3-(3-methoxyphenyl)propanamido)-3,3-dimethylbutanoyl)-N-(4-(4-methylthiazol-5-yl)benzyl)pyrrolidine-2-carboxamide] | 6.26 | – | 6.46 | –
7 | CCCC(=O)N[C@H](C(=O)N1C[C@H](O)C[C@H]1C(=O)NCc1ccc(-c2scnc2C)cc1)C(C)(C)C [Example 13, (2S,4R)-1-((S)-2-butyramido-3,3-dimethylbutanoyl)-4-hydroxy-N-(4-(4-methylthiazol-5-yl)benzyl)pyrrolidine-2-carboxamide] | 5.87 | 5.47 | 5.53 | –
8 | Cc1ncsc1-c1ccc(CNC(=O)[C@@H]2C[C@@H](O)CN2C(=O)[C@H](C(C)C)N2Cc3cccc(Br)c3C2=O)cc1 [Example 42, (2S,4R)-1-((S)-2-(7-bromo-1-oxoisoindolin-2-yl)-3-methylbutanoyl)-4-hydroxy-N-(4-(4-methylthiazol-5-yl)benzyl)pyrrolidine-2-carboxamide] | 5.31 | – | 4.80 | –
9 | Cc1ncsc1-c1ccc(CNC(=O)[C@@H]2C[C@@H](O)CN2C(=O)[C@@H](C(C)C)N2Cc3ccc(F)cc3C2=O)cc1 [Example 10, (2S,4R)-1-((R)-2-(6-fluoro-1-oxoisoindolin-2-yl)-3-methylbutanoyl)-4-hydroxy-N-(4-(4-methylthiazol-5-yl)benzyl)pyrrolidine-2-carboxamide] | ~5.17 | – | 3.53 | –
10 | Cc1ncsc1-c1ccc(CNC(=O)[C@@H]2C[C@@H](O)CN2C(=O)[C@@H](NC(=O)c2cccnc2)C(C)(C)C)cc1 [Example 84, N—((S)-1-((2S,4R)-4-hydroxy-2-(4-(4-methylthiazol-5-yl)benzylcarbamoyl)pyrrolidin-1-yl)-3,3-dimethyl-1-oxobutan-2-yl)nicotinamide] | 5.91 | – | 5.84 | –
11 | Cc1ncsc1-c1ccc(CNC(=O)[C@@H]2C[C@@](O)(CO)CN2C(=O)[C@H](C(C)C)N2Cc3ccccc3C2=O)cc1 [Example 144, (2S,4S)-4-hydroxy-4-(hydroxymethyl)-1-((S)-3-methyl-2-(1-oxoisoindolin-2-yl)butanoyl)-N-(4-(4-methylthiazol-5-yl)benzyl)pyrrolidine-2-carboxamide] | – | – | – | Not active
12 | CC(C)[C@@H](C(=O)N1C[C@H](O)C[C@H]1C(=O)NCc1ccc(-c2ccccc2)cc1)N1Cc2ccccc2C1=O [Example 40, (2S,4R)—N-(biphenyl-4-ylmethyl)-4-hydroxy-1-((S)-3-methyl-2-(1-oxoisoindolin-2-yl)butanoyl)pyrrolidine-2-carboxamide] | 5.63 | 4.76 | 5.41 | –
13 | CC(C)[C@@H](C(=O)N1C[C@H](O)C[C@H]1C(=O)NCc1ccc(Br)cc1)N1Cc2ccccc2C1=O [Example 23, (2S,4R)—N-(4-bromobenzyl)-4-hydroxy-1-((S)-3-methyl-2-(1-oxoisoindolin-2-yl)butanoyl)pyrrolidine-2-carboxamide] | 5.60 | 5.94 | 5.22 | –
14 | CC(=O)NC(C(=O)N1C[C@H](O)C[C@H]1C(=O)NCc1ccc(-c2scnc2C)cc1)C(F)(F)F (stereo partly drawn) [Example 90, (2S,4R)-1-(2-acetamido-3,3,3-trifluoropropanoyl)-4-hydroxy-N-(4-(4-methylthiazol-5-yl)benzyl)pyrrolidine-2-carboxamide] | 4.34 | – | 4.32 | –
15 | Cc1ncsc1-c1ccc(CNC(=O)[C@@H]2C[C@@H](O)CN2C(=O)[C@@H](NC(=O)CCC(C)C)c2cccs2)cc1 [Example 52, (2S,4R)-4-hydroxy-1-((R)-2-(4-methylpentanamido)-2-(thiophen-2-yl)acetyl)-N-(4-(4-methylthiazol-5-yl)benzyl)pyrrolidine-2-carboxamide] | 5.61 | – | 5.43 | –
16 | CC(C)[C@@H](C(=O)N1C[C@H](O)C[C@H]1C(=O)NCc1ccc(-c2cncs2)cc1)N1Cc2ccccc2C1=O [Example 97, (2S,4R)-4-hydroxy-1-((S)-3-methyl-2-(1-oxoisoindolin-2-yl)butanoyl)-N-(4-(thiazol-5-yl)benzyl)pyrrolidine-2-carboxamide] | 5.84 | – | – | –
17 | Cc1ncsc1-c1ccc(CNC(=O)[C@@H]2C[C@@H](O)CN2C(=O)[C@@H](NC(=O)CCC(C)C)C2CCCCC2)cc1 [Example 56, (2S,4R)-1-((S)-2-cyclohexyl-2-(4-methylpentanamido)acetyl)-4-hydroxy-N-(4-(4-methylthiazol-5-yl)benzyl)pyrrolidine-2-carboxamide] | 6.06 | – | 5.83 | –

Further lines, results first:

Row | pIC50 (1% in DMSO) | pIC50 (0.25% in DMSO) | pIC50 (10% in DMSO) | VHL FP Assay IC50 (1% in DMSO) | SMILES
18 | 5.41 | – | – | – | CC(=O)N[C@H](C(=S)N1C[C@H](O)C[C@H]1C(=O)NCc1ccc(-c2scnc2C)cc1)C(C)C [Example 130, (2S,4R)-1-((S)-2-acetamido-3-methylbutanethioyl)-4-hydroxy-N-(4-(4-methylthiazol-5-yl)benzyl)pyrrolidine-2-carboxamide]
19 | 6.27 | 5.71 | 5.97 | – | Cc1ncsc1-c1ccc(CNC(=O)[C@@H]2C[C@@H](O)CN2C(=O)[C@H](C(C)C)N2Cc3c(F)cccc3C2=O)cc1 [Example 33, (2S,4R)-1-((S)-2-(4-fluoro-1-oxoisoindolin-2-yl)-3-methylbutanoyl)-4-hydroxy-N-(4-(4-methylthiazol-5-yl)benzyl)pyrrolidine-2-carboxamide]
20 | – | – | – | Not Active | Cc1ncsc1-c1ccc(CNC(=O)C2(C)C[C@@H](O)CN2C(=O)[C@H](C(C)C)N2Cc3ccccc3C2=O)cc1 (stereo partly shown) [Example 131]
21 | 6.16 | 6.02 | 5.79 | – | Cc1ncsc1-c1ccc([C@H](C)NC(=O)[C@@H]2C[C@@H](O)CN2C(=O)[C@H](C(C)C)N2Cc3ccccc3C2=O)cc1 [Example 39, (2S,4R)-4-hydroxy-N-[(1S)-1-[4-(4-methyl-1,3-thiazol-5-yl)phenyl]ethyl]-1-[(2S)-3-methyl-2-(1-oxo-2,3-dihydro-1H-isoindol-2-yl)butanoyl]pyrrolidine-2-carboxamide]
22 | 4.10 | – | 3.95 | – | Cc1ncsc1-c1ccc(CNC(=N)[C@@H]2C[C@@H](O)CN2C(=O)[C@H](C(C)C)N2Cc3ccccc3C2=O)cc1 [Example 126, (2S,4R)-4-hydroxy-1-((S)-3-methyl-2-(1-oxoisoindolin-2-yl)butanoyl)-N-(4-(4-methylthiazol-5-yl)benzyl)pyrrolidine-2-carboximidamide]
23 | 4.81 | – | – | – | CC(C)[C@@H](C(=O)N1C[C@H](O)C[C@H]1C(=O)NCc1ccc(C2CCCCC2)cc1)N1Cc2ccccc2C1=O [Example 117, (2S,4R)—N-(4-cyclohexylbenzyl)-4-hydroxy-1-((S)-3-methyl-2-(1-oxoisoindolin-2-yl)butanoyl)pyrrolidine-2-carboxamide]
24 | 5.94 | 5.65 | 5.47 | – | Cc1ncsc1-c1ccc(CNC(=O)[C@@H]2C[C@@H](O)CN2C(=O)[C@@H](NCCC(C)C)C2CCCC2)cc1 [Example 32, (2S,4R)-1-((S)-2-cyclopentyl-2-(isopentylamino)acetyl)-4-hydroxy-N-(4-(4-methylthiazol-5-yl)benzyl)pyrrolidine-2-carboxamide]
25 | 5.88 | – | 5.92 | – | Cc1ncsc1-c1ccc(CNC(=O)[C@@H]2C[C@@H](O)CN2C(=O)[C@H](C(C)C)N2Cc3cc(Cl)ccc3C2=O)cc1 [Example 73, (2S,4R)-1-((S)-2-(5-chloro-1-oxoisoindolin-2-yl)-3-methylbutanoyl)-4-hydroxy-N-(4-(4-methylthiazol-5-yl)benzyl)pyrrolidine-2-carboxamide]
26 | 4.80 | – | – | – | CC(C)[C@@H](C(=O)N1C[C@H](O)C[C@H]1C(=O)NCc1ccc(C2CCCC2)cc1)N1Cc2ccccc2C1=O [Example 115, (2S,4R)—N-(4-cyclopentylbenzyl)-4-hydroxy-1-((S)-3-methyl-2-(1-oxoisoindolin-2-yl)butanoyl)pyrrolidine-2-carboxamide]
27 | 5.38 | – | – | – | Cc1ncsc1-c1ccc(CNC(=O)[C@@H]2C[C@@H](O)CN2C(=O)[C@H](C(C)C)N2CCCC2=O)cc1 [Example 98, (2S,4R)-4-hydroxy-1-((S)-3-methyl-2-(2-oxopyrrolidin-1-yl)butanoyl)-N-(4-(4-methylthiazol-5-yl)benzyl)pyrrolidine-2-carboxamide]
